Several values for one entry are separate records, joined by “and”; a condition that tells them apart may be missing. Equal values may be shown once. Read-outs that look alike come from different tables or passages of the source.
Experiments:
Type in all cases: cell-based
GABA-ρ2 receptors [1] = target: T1, GABA-ρ2 receptors (Homo sapiens, UniProt P28476); assay: Two-electrode voltage-clamp, agonist dose–response at GABA-ρ2 receptors expressed in Xenopus oocytes; conditions: for GABA-ρ2 Efficacy: relative to GABA maximal response
T1 construct: expressed in transfected cells; host or cells: Xenopus laevis oocytes injected with cRNA
Procedure: (§1) Ovary lobes were dissected from female Xenopus laevis (South Africa clawed frogs), which were removed as reported previously, in accordance with the National Health and Medical Research Council (NHMRC) of Australia’s ethical guidelines. This procedure is also approved by the University of Sydney’s animal ethics committee (2013/5915). In brief, the females of Xenopus laevis were anaesthetized using 0.17% 3-aminobenzoic acid ethyl ester with 0.02% NaCl for 10–15 min, and a lobe of the ovary was dissected. The lobes were washed with oocyte releasing buffer 2 (OR2: 82.5 mM NaCl, 5 mM HEPES, 2 mM KCl, 1 mM MgCl2.6H2O pH 7.5) and incubated with collagenase A (2 mg·mL^−1 in OR2, Boehringer Mannheim, Mannheim, Germany) for approximately 2 h to separate oocytes from follicular cells and connective tissue. The released oocytes were washed in ND96 solution (96 mM NaCl, 1 mM MgCl2.6H2O, 2 mM KCl, 5 mM HEPES, and 1.8 mM CaCl2 pH 7.5). Stage V–VI oocytes were collected and injected in the cytoplasm using a 15–20 μm diameter tip micropipette (micropipette puller, Sutter Instruments, Novato, CA, USA) and a Nanoject injector (Drummond Scientific Co., Broomall, PA, USA) set to deliver a total of ~15 ng of cRNA.
(§2) The injected oocytes were placed on an oscillator at 18 °C for 2–6 days in ND96 solution, which contained 0.5 mM theophylline, 2.5 mM pyruvate, 50 μg/mL tetracycline, and 50 μg/mL gentamycin.
(§3) The activity of receptors was tested by recording whole cell currents using the two-electrode voltage clamp technique as previously reported. In brief, fabricated microelectrodes prepared with a micropipette puller (Sutter instruments, Novato, CA, USA), were filled with 3 M KCl solution (0.3–2.3 MΩ). Oocytes were immersed with ND96 buffer in the cell chamber at approximately 5 mL/min rate. The microelectrode impaled cells were clamped at −60 mV (voltage), and the currents elicited in response to the application of ligand/s was recorded using a Power Lab 2/25 analogue–digital data acquisition system (AD Instruments, Sydney, NSW, Australia), a Geneclamp 500 B amplifier (Axon Instrument, Foster City, CA, USA), and Lab Chart version 5.0.2 program (ADInstruments, Sydney, Australia).
(§4) Ligands were applied into the perfusate until a peak response (maximal) was reached. All stock solutions of the ligands were freshly made on the day of experiments. Solutions of ligands dissolved in DMSO were standardized to contain less than 0.8% DMSO in the final perfusate solution to prevent any alteration in the recordings. Perfusates containing these ligands (chemicals) were freshly prepared before each application. The dose–response curves of ligands were obtained by increasing the concentrations of applied agonists on oocytes until the maximum current reached. […] All experiments were conducted using at least two batches of oocytes.
(§5) I = Imax [A]^nH / (EC50^nH + [A]^nH)(1) where I is the current response, referring to a known concentration of agonist; Imax is the maximum current obtained; [A] is the agonist concentration; EC50 is the concentration of agonist/partial agonist at which the current response is half maximal; and nH is the Hill coefficient.

GABA-ρ1 receptors [2] = target: T2, GABA-ρ1 receptors (Homo sapiens, UniProt P24046); assay: Two-electrode voltage-clamp, co-application of ligand with GABA EC50 at GABA-ρ1 receptors (additive/inhibition); conditions: for GABA-ρ1 Additive/Inhibition Hill slope: co-application curve with GABA EC50
T2 construct: expressed in transfected cells; host or cells: Xenopus laevis oocytes injected with cRNA
Procedure: as §3, §4, §5
(§6) The equations for bell-shaped and biphasic curves are embedded in GraphPad PRISM 8.02.
(§7) A p value < 0.05 was considered statistically significant. […] Significance assigned * if p < 0.05, ** if p < 0.01, *** if p < 0.001 and **** if p < 0.0001.

GABA-ρ1 receptors [3] = target: T2, GABA-ρ1 receptors; assay: Two-electrode voltage-clamp, agonist dose–response at GABA-ρ1 receptors expressed in Xenopus oocytes
Procedure: as §1, §2, §3, §4, §5

GABA-ρ2 receptors [4] = target: T1, GABA-ρ2 receptors; assay: Two-electrode voltage-clamp, co-application of ligand with GABA EC50 at GABA-ρ2 receptors (additive/inhibition)
Procedure: as §3, §4, §5, §6, §7

[5] = co-applied with GABA EC50, % of GABA EC50 response
[6] = relative to GABA maximal response
[7] = TEVC, Xenopus oocytes, −60 mV, read-out: GABA-ρ2 EC50
[8] = TEVC, Xenopus oocytes, −60 mV, read-out: GABA-ρ1 EC50
[9] = bell-shaped/biphasic co-application curve with GABA EC50
[10] = co-application curve with GABA EC50 (800 nM)
[11] = co-applied with GABA EC50 (800 nM), % of GABA EC50 response

T1 sequence (P28476 21-465): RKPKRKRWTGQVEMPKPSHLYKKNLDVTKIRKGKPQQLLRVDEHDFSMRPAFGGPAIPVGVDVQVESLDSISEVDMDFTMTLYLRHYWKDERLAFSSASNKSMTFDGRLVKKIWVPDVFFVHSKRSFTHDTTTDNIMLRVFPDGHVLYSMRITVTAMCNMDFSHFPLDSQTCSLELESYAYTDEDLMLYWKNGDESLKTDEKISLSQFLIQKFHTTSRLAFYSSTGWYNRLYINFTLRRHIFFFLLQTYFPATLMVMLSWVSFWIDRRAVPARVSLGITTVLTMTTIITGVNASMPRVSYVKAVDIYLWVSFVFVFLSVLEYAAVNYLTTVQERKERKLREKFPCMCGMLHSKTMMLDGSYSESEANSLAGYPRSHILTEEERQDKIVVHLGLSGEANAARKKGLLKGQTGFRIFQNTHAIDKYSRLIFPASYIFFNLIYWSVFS
T2 sequence (P24046 22-479): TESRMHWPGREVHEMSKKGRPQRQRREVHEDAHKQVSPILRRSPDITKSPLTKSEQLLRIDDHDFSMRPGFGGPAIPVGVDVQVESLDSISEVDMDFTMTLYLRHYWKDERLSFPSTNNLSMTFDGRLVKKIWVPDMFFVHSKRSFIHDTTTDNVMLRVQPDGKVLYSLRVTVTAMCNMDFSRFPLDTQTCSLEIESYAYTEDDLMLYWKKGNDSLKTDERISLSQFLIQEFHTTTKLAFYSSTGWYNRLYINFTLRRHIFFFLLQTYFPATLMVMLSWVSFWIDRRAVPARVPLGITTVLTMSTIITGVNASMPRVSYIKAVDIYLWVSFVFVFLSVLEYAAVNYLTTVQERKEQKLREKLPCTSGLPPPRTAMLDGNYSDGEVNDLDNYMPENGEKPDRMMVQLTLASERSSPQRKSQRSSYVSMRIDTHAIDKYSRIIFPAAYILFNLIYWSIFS

Compound | EC50 (GABA-ρ2 receptors [1]) [µM] | GABA-ρ2 Efficacy (GABA-ρ2 receptors [1]) [%] | GABA-ρ1 Additive (%) (GABA-ρ1 receptors [2]; [5]) | EC50 (GABA-ρ1 receptors [3]) [µM] | GABA-ρ1 Efficacy (GABA-ρ1 receptors [3]; [6]) [%] | GABA-ρ2 Additive (%) (GABA-ρ2 receptors [4]) | % of GABA EC50 response when co-applied with 1 µM ligand (GABA-ρ2 receptors [4]; oocytes) [%] | % of GABA EC50 response when co-applied with 10 µM ligand (GABA-ρ2 receptors [4]; oocytes) [%] | EC50 (GABA-ρ2 receptors [1]; [7]) [µM] | EC50 (GABA-ρ1 receptors [3]; [8]) [µM] | GABA-ρ1 Additive/Inhibition Hill slope (GABA-ρ1 receptors [2]) | GABA-ρ2 Additive/Inhibition Hill slope (GABA-ρ2 receptors [4]; [10]) | GABA-ρ2 Additive (%) (GABA-ρ2 receptors [4]; [11]) | further results
NCc1cc(=O)[nH]o1 [Muscimol, muscimol] | 0.65 | 65 | 125 | 1.25 | 80 | 112 | 106.9 ± 1.1 | 107.9 ± 3.1 | – | – | – | – | – | GABA-ρ2 Additive/Inhibition Hill slope (GABA-ρ2 receptors [4]): 0.14 ± 0.48
NCC(=O)O [Glycine, glycine] | – | 70 | 170 | – | 25 | 115 | – | – | ~1000 | ~1000 | – | – | – | % of GABA EC50 response when co-applied with 1 µM ligand (GABA-ρ2 receptors [4]): does not show a significant effect; % of GABA EC50 response when co-applied with 100 µM ligand (GABA-ρ2 receptors [4]): 115.4% and 115%; GABA-ρ2 Additive/Inhibition nH1 (GABA-ρ2 receptors [4]; [9]): 1.8 ± 0.3; GABA-ρ2 Additive/Inhibition nH2 (GABA-ρ2 receptors [4]; [9]): 1.7 ± 0.5
NC/C=C/C(=O)O [TACA] | – | 85 | – | – | – | – | 118.4 | 137.5 | 0.45 ± 0.4 | 0.6 | 0.9 ± 0.08 | 0.8 ± 0.46 | 140 | GABA-ρ1 Additive (%) (GABA-ρ1 receptors [2]): 190%; GABA-ρ1 Efficacy (GABA-ρ1 receptors [3]): 95%
NC/C=C\C(=O)O [CACA] | – | 60 | – | – | – | – | – | – | 37 ± 12 | 93 ± 5.2 | 0.9 ± 0.44 | – | – | GABA-ρ1 Additive (%) (GABA-ρ1 receptors [2]): 160%; GABA-ρ1 Efficacy (GABA-ρ1 receptors [3]): 60%; effect on GABA EC50 response when co-applied with 1 mM ligand (GABA-ρ2 receptors [4]; GABA-ρ2, GABA EC50, ligand 1 mM, data not shown): does not show any significant effect
NCCC(=O)O [β-Alanine, β-alanine] | 560 | 85 | 120 | 400 | 30 | – | 108.9 | – | – | – | 1.5 ± 0.8 | – | 120 | % of GABA EC50 response when co-applied with 100 µM ligand (GABA-ρ2 receptors [4]; GABA-ρ2, GABA EC50 800 nM, ligand 100 µM): no significant effect; GABA-ρ2 Additive/Inhibition nH2 (GABA-ρ2 receptors [4]; [9]): 1.6 ± 0.36
O=C(O)Cc1c[nH]cn1 [Imidazole-4-acetic acid, imidazole-4-acetic acid] | 0.2 | 40 | 115 | 66 | 10 | 110 | 94.2 ± 1.4 | 86.25 ± 3.5 | – | – | 1.3 ± 0.22 | – | – | efficacy at GABA-ρ2 receptors, fold higher than at GABA-ρ1 receptors (GABA-ρ2 receptors [1]; ρ2 versus ρ1): 100 fold; potency at GABA-ρ2 receptors, fold higher than at GABA-ρ1 receptors (GABA-ρ2 receptors [1]; ρ2 versus ρ1): 4 fold; IC50 (GABA-ρ1 receptors [2]): 0.8 µM; GABA-ρ2 Additive/Inhibition Hill slope (GABA-ρ2 receptors [4]): 0.87 ± 0.39; IC50 (GABA-ρ2 receptors [4]): 2.4 µM
NCCCC(=O)O [GABA] | – | – | – | – | – | – | – | – | – | – | – | – | – | EC50 (GABA-ρ2 receptors [1]; TEVC, Xenopus oocytes, read-out: GABA-ρ2 EC50): 0.8 µM
NCCCCC(=O)O [5-Aminovaleric acid, 5-amino valeric acid] | – | 45 | 125 | – | 3 | – | 92 | – | 36 | 600 | 3 ± 0.75 | 0.6 ± 0.48 | 110 | IC50 (GABA-ρ1 receptors [2]): 35 µM; IC50 (GABA-ρ2 receptors [4]): 10 µM; % of GABA EC50 response when co-applied with 100 µM ligand (GABA-ρ2 receptors [4]; oocytes): 51.1%
O=C(O)C1=CCNCC1 [Isoguvacine, isoguvacine] | – | 25 | 135 | – | 40 | – | 106.8 ± 2.5 | 110 ± 4.3 | 35 | 205 | 0.57 ± 0.25 | 0.37 ± 3.1 | 120 | potency at GABA-ρ2 receptors, fold higher than at GABA-ρ1 receptors (GABA-ρ2 receptors [1]; ρ2 versus ρ1): six-fold; efficacy at GABA-ρ1 receptors, fold higher than at GABA-ρ2 receptors (GABA-ρ1 receptors [3]; ρ1 versus ρ2): two-fold
